Data on 1 compound can be found in article PMC5218480 (PLoS ONE, 2017).

For the assay, the system named is MV-4-11 cells. Put plainly: Gene expression microarray analysis (Affymetrix PrimeView) and GSEA. To be noted: ProbeSet 11719185_x_at; LIST B. On the set-up: RFU PODN (11730768_x_at) / Fold change /veh PODN (11730768_x_at) / RFU LINC00158 (11744669_a_at) / Fold change /veh LINC00158 (11744669_a_at) / RFU DUSP10 (11751237_a_at) / Fold change /veh DUSP10 (11751237_a_at) / RFU ID3 (11757404_x_at) / Fold change /veh ID3 (11757404_x_at) / RFU PLEKHG5 (11737974_s_at) / Fold change /veh PLEKHG5 (11737974_s_at) / RFU LRRC4B (11730491_at) / Fold change /veh LRRC4B (11730491_at) / RFU GIMAP4 (11747438_a_at) / Fold change /veh GIMAP4 (11747438_a_at) / RFU KRT8 (11758183_x_at) / Fold change /veh KRT8 (11758183_x_at) / RFU CNN1 (11734310_a_at) / Fold change /veh CNN1 (11734310_a_at) / RFU VPS37D (11726825_at) / Fold change /veh VPS37D (11726825_at) / RFU C10orf10 (11716522_x_at) / Fold change /veh C10orf10 (11716522_x_at) / RFU KIR2DL2 /// KIR2DL4 /// KIR2DL5A /// KIR2DL5B /// KIR2DS1 /// KIR2DS2 /// KIR2DS3 /// KIR2DS4 /// KIR3DL3 /// KIR3DL3 /// KIR3DS1 (11738374_at) / Fold change /veh KIR2DL2 /// KIR2DL4 /// KIR2DL5A /// KIR2DL5B /// KIR2DS1 /// KIR2DS2 /// KIR2DS3 /// KIR2DS4 /// KIR3DL3 /// KIR3DL3 /// KIR3DS1 (11738374_at) / RFU C1QL1 (11718748_at) / Fold change /veh C1QL1 (11718748_at) / RFU TMPRSS4 (11747572_a_at) / Fold change /veh TMPRSS4 (11747572_a_at) / RFU HAMP (11756126_x_at) / Fold change /veh HAMP (11756126_x_at) / RFU RNFT2 (11725882_a_at) / Fold change /veh RNFT2 (11725882_a_at) / RFU NR4A2 (11747474_a_at) / Fold change /veh NR4A2 (11747474_a_at) / RFU ABCC12 (11746883_a_at) / Fold change /veh ABCC12 (11746883_a_at) / RFU TMEM136 (11760407_x_at) / Fold change /veh TMEM136 (11760407_x_at) / RFU CLDN22 /// WWC2 (11732394_at) / Fold change /veh CLDN22 /// WWC2 (11732394_at) / RFU HLA-DPB1 (11760878_x_at) / Fold change /veh HLA-DPB1 (11760878_x_at) / RFU SPINT1 (11716480_a_at) / Fold change /veh SPINT1 (11716480_a_at) / RFU GAP43 (11754022_s_at) / Fold change /veh GAP43 (11754022_s_at) / RFU A4GNT (11735810_at) / Fold change /veh A4GNT (11735810_at) / RFU PRB3 (11715151_x_at) / Fold change /veh PRB3 (11715151_x_at) / RFU TUBB4B (11761932_at) / Fold change /veh TUBB4B (11761932_at) / RFU CAPN14 (11732068_a_at) / Fold change /veh CAPN14 (11732068_a_at) / RFU TMCC2 (11721928_a_at) / Fold change /veh TMCC2 (11721928_a_at) / RFU IRGQ (11745062_a_at) / Fold change /veh IRGQ (11745062_a_at) / RFU FAM174B (11720279_a_at) / Fold change /veh FAM174B (11720279_a_at) / RFU TMPRSS4 (11748680_a_at) / Fold change /veh TMPRSS4 (11748680_a_at) / RFU FAM212B (11763350_a_at) / Fold change /veh FAM212B (11763350_a_at) / RFU PLEKHG5 (11743358_a_at) / Fold change /veh PLEKHG5 (11743358_a_at) / RFU ZSCAN30 (11745921_a_at) / Fold change /veh ZSCAN30 (11745921_a_at) / RFU CMKLR1 (11741424_a_at) / Fold change /veh CMKLR1 (11741424_a_at) / RFU LOC101060620 /// MAPK8IP1 (11723275_at) / Fold change /veh LOC101060620 /// MAPK8IP1 (11723275_at) / RFU SPTSSB (11747773_x_at) / Fold change /veh SPTSSB (11747773_x_at) / RFU PRSS12 (11739890_at) / Fold change /veh PRSS12 (11739890_at) / RFU BIN1 (11741810_x_at) / Fold change /veh BIN1 (11741810_x_at) / RFU WNT11 (11732464_a_at) / Fold change /veh WNT11 (11732464_a_at) / RFU C10orf10 (11716521_a_at) / Fold change /veh C10orf10 (11716521_a_at) / RFU C5orf56 (11738089_at) / Fold change /veh C5orf56 (11738089_at) / RFU CYB561 (11721691_x_at) / Fold change /veh CYB561 (11721691_x_at) / RFU ANKRD19P (11752326_a_at) / Fold change /veh ANKRD19P (11752326_a_at) / RFU OR2T12 /// OR2T33 /// OR2T8 (11738714_s_at) / Fold change /veh OR2T12 /// OR2T33 /// OR2T8 (11738714_s_at) / RFU VCAN (11748164_a_at) / Fold change /veh VCAN (11748164_a_at) / RFU JSRP1 (11732532_at) / Fold change /veh JSRP1 (11732532_at) / RFU KRTAP10-11 (11738290_x_at) / Fold change /veh KRTAP10-11 (11738290_x_at) / RFU MYO3A (11730013_a_at) / Fold change /veh MYO3A (11730013_a_at) / RFU EBF3 (11725865_a_at) / Fold change /veh EBF3 (11725865_a_at) / RFU CAMK2N1 (11719241_x_at) / Fold change /veh CAMK2N1 (11719241_x_at) / RFU C5orf56 (11738088_a_at) / Fold change /veh C5orf56 (11738088_a_at) / RFU OLFML3 (11715873_a_at) / Fold change /veh OLFML3 (11715873_a_at) / RFU LOC100653217 /// NTM (11731650_a_at) / Fold change /veh LOC100653217 /// NTM (11731650_a_at) / RFU MAPK11 (11762145_a_at) / Fold change /veh MAPK11 (11762145_a_at) / RFU FIZ1 (11724087_x_at) / Fold change /veh FIZ1 (11724087_x_at) / RFU OASL (11726364_x_at) / Fold change /veh OASL (11726364_x_at) / RFU SOX15 (11748057_x_at) / Fold change /veh SOX15 (11748057_x_at) / RFU CD79A (11719716_a_at) / Fold change /veh CD79A (11719716_a_at) / RFU HIST1H1D (11736915_at) / Fold change /veh HIST1H1D (11736915_at) / RFU CASKIN2 (11723855_a_at) / Fold change /veh CASKIN2 (11723855_a_at) / RFU LOC730098 (11760151_x_at) / Fold change /veh LOC730098 (11760151_x_at) / RFU OR4N2 (11742367_at) / Fold change /veh OR4N2 (11742367_at) / RFU PRRT2 (11749266_a_at) / Fold change /veh PRRT2 (11749266_a_at) / RFU SNX32 (11753110_a_at) / Fold change /veh SNX32 (11753110_a_at) / RFU CDHR5 (11726645_a_at) / Fold change /veh CDHR5 (11726645_a_at) / RFU RCAN1 (11760418_a_at) / Fold change /veh RCAN1 (11760418_a_at) / RFU FAM167A (11723789_a_at) / Fold change /veh FAM167A (11723789_a_at) / RFU FAM26E (11764081_at) / Fold change /veh FAM26E (11764081_at) / RFU ISYNA1 (11749810_s_at) / Fold change /veh ISYNA1 (11749810_s_at) / RFU ACY1 (11761880_at) / Fold change /veh ACY1 (11761880_at) / RFU 11764098_at / Fold change /veh 11764098_at / RFU SAMD14 (11745864_x_at) / Fold change /veh SAMD14 (11745864_x_at) / RFU NPB (11741838_a_at) / Fold change /veh NPB (11741838_a_at) / RFU TMPRSS6 (11731388_a_at) / Fold change /veh TMPRSS6 (11731388_a_at) / RFU KRTAP10-2 (11738614_at) / Fold change /veh KRTAP10-2 (11738614_at) / RFU ARHGAP8 /// PRR5-ARHGAP8 (11727945_x_at) / Fold change /veh ARHGAP8 /// PRR5-ARHGAP8 (11727945_x_at) / RFU KRTAP5-7 /// NADSYN1 (11734609_at) / Fold change /veh KRTAP5-7 /// NADSYN1 (11734609_at) / RFU RASL12 (11751679_a_at) / Fold change /veh RASL12 (11751679_a_at) / RFU CDKN2B (11736163_a_at) / Fold change /veh CDKN2B (11736163_a_at) / RFU PRF1 (11729649_at) / Fold change /veh PRF1 (11729649_at) / RFU, ZNF638 /// ZNF638-IT1 / Fold change vs veh, ZNF638 /// ZNF638-IT1 / RFU, PANK3 / Fold change vs veh, PANK3 / RFU, SH3YL1 / Fold change vs veh, SH3YL1 / RFU, ZEB2 / Fold change vs veh, ZEB2 / RFU, NRIP1 / Fold change vs veh, NRIP1 / RFU, PTTG1IP / Fold change vs veh, PTTG1IP / RFU, CAPN2 / Fold change vs veh, CAPN2 / RFU, MED14 / Fold change vs veh, MED14 / RFU, SNORA58 / Fold change vs veh, SNORA58 / RFU, C1orf63 / Fold change vs veh, C1orf63 / RFU, LRRFIP1 / Fold change vs veh, LRRFIP1 / RFU, NDUFAF7 / Fold change vs veh, NDUFAF7 / RFU, SLC12A2 / Fold change vs veh, SLC12A2 / RFU, IBTK / Fold change vs veh, IBTK / RFU, ESF1 / Fold change vs veh, ESF1 / Fold change vs veh, TMEM50B / RFU, TAOK1 / Fold change vs veh, TAOK1 / RFU, ACBD3 / Fold change vs veh, ACBD3 / RFU, TMA16 / Fold change vs veh, TMA16 / RFU, RWDD3 / Fold change vs veh, RWDD3 / RFU, BCAT1 / Fold change vs veh, BCAT1 / RFU, EDEM3 / Fold change vs veh, EDEM3 / RFU, TMEM33 / Fold change vs veh, TMEM33 / RFU, WDR75 / Fold change vs veh, WDR75 / RFU, AHCTF1 / Fold change vs veh, AHCTF1 / RFU, TFRC / Fold change vs veh, TFRC / RFU, ZDHHC17 / Fold change vs veh, ZDHHC17 / RFU, NOM1 / Fold change vs veh, NOM1 / RFU, ARL8B / Fold change vs veh, ARL8B / RFU, ZBTB11 / Fold change vs veh, ZBTB11 / RFU, TAMM41 / Fold change vs veh, TAMM41 / RFU, KIAA1704 /// LOC100996395 / Fold change vs veh, KIAA1704 /// LOC100996395 / RFU, ING1 / Fold change vs veh, ING1 / RFU, TRMT61B / Fold change vs veh, TRMT61B / RFU, FUBP3 / Fold change vs veh, FUBP3 / RFU, TP53 / Fold change vs veh, TP53 / RFU, TNKS2 / Fold change vs veh, TNKS2 / RFU, ZFP14 / Fold change vs veh, ZFP14 / RFU, ACTR2 / Fold change vs veh, ACTR2 / RFU, PPP3R1 / Fold change vs veh, PPP3R1 / RFU, PIK3R1 / Fold change vs veh, PIK3R1 / RFU, HNRNPA1 / Fold change vs veh, HNRNPA1 / RFU, RNF170 / Fold change vs veh, RNF170 / RFU, ZNF28 / Fold change vs veh, ZNF28 / RFU, RNGTT / Fold change vs veh, RNGTT / RFU, OGT / Fold change vs veh, OGT / RFU, BRD1 / Fold change vs veh, BRD1 / RFU, MARS / Fold change vs veh, MARS / RFU, ZNF655 / Fold change vs veh, ZNF655 / RFU, FAHD1 / Fold change vs veh, FAHD1 / RFU, BDP1 / Fold change vs veh, BDP1 / RFU, LRRCC1 / Fold change vs veh, LRRCC1 / RFU, ARID1A / Fold change vs veh, ARID1A / RFU, ZNF146 / Fold change vs veh, ZNF146 / RFU, ZNF330 / Fold change vs veh, ZNF330 / RFU, GPN3 / Fold change vs veh, GPN3 / RFU, C9orf123 / Fold change vs veh, C9orf123 / RFU, N4BP2L2 / Fold change vs veh, N4BP2L2 / RFU, ARFIP1 / Fold change vs veh, ARFIP1 / RFU, FAM179B / Fold change vs veh, FAM179B / RFU, BCL10 / Fold change vs veh, BCL10 / RFU, UHRF1BP1L / Fold change vs veh, UHRF1BP1L / RFU, BET1 / Fold change vs veh, BET1 / RFU, CNOT2 / Fold change vs veh, CNOT2 / RFU, ZNF268 / Fold change vs veh, ZNF268 / Fold change vs veh, ZNF507 / RFU, DGCR2 / Fold change vs veh, DGCR2 / RFU, WDSUB1 / Fold change vs veh, WDSUB1 / Fold change vs veh, HSP90B1 /// MIR3652 / RFU, ADSS / Fold change vs veh, ADSS / RFU, GK / Fold change vs veh, GK / RFU, ZNF148 / Fold change vs veh, ZNF148 / RFU, TAF9 / Fold change vs veh, TAF9 / RFU, SLC1A5 / Fold change vs veh, SLC1A5 / RFU, SLMO2 / Fold change vs veh, SLMO2 / RFU, ABCC4 / Fold change vs veh, ABCC4 / RFU, LOC101060439 /// RAP1B / Fold change vs veh, LOC101060439 /// RAP1B / RFU, RFX7 / Fold change vs veh, RFX7 / RFU, GTPBP10 / Fold change vs veh, GTPBP10 / RFU, CNEP1R1 / Fold change vs veh, CNEP1R1 / RFU, BIVM-ERCC5 /// ERCC5 / Fold change vs veh, BIVM-ERCC5 /// ERCC5 / RFU, ILF3 / Fold change vs veh, ILF3 / RFU 11762660_at / Fold change /veh 11762660_at / RFU VCAN (11757783_s_at) / Fold change /veh VCAN (11757783_s_at) / RFU DDX43 (11728927_at) / Fold change /veh DDX43 (11728927_at) / RFU KRT8 (11758188_x_at) / Fold change /veh KRT8 (11758188_x_at) / RFU NKD1 (11759106_at) / Fold change /veh NKD1 (11759106_at) / RFU SRD5A1 (11742802_a_at) / Fold change /veh SRD5A1 (11742802_a_at) / RFU TPSAB1 /// TPSB2 (11721975_s_at) / Fold change /veh TPSAB1 /// TPSB2 (11721975_s_at) / RFU GSTM3 (11746129_a_at) / Fold change /veh GSTM3 (11746129_a_at) / RFU IL23R (11737362_x_at) / Fold change /veh IL23R (11737362_x_at) / RFU TMEM51 (11727254_a_at) / Fold change /veh TMEM51 (11727254_a_at) / RFU PIWIL2 (11732686_x_at) / Fold change /veh PIWIL2 (11732686_x_at) / RFU ORM1 (11744905_x_at) / Fold change /veh ORM1 (11744905_x_at) / RFU CCDC152 (11743942_at) / Fold change /veh CCDC152 (11743942_at) / RFU ECM1 (11717891_a_at) / Fold change /veh ECM1 (11717891_a_at) / RFU IL23R (11748794_a_at) / Fold change /veh IL23R (11748794_a_at) / RFU TNFAIP8L3 (11732012_x_at) / Fold change /veh TNFAIP8L3 (11732012_x_at) / RFU MBOAT4 (11741988_at) / Fold change /veh MBOAT4 (11741988_at) / RFU 11764193_at / Fold change /veh 11764193_at / RFU TMEM53 (11763286_at) / Fold change /veh TMEM53 (11763286_at) / RFU MAGEB2 (11727129_at) / Fold change /veh MAGEB2 (11727129_at) / RFU TMEM200A (11744735_a_at) / Fold change /veh TMEM200A (11744735_a_at) / RFU CCDC152 (11751479_a_at) / Fold change /veh CCDC152 (11751479_a_at) / RFU FAM211A (11726209_a_at) / Fold change /veh FAM211A (11726209_a_at) / RFU RGS16 (11746705_a_at) / Fold change /veh RGS16 (11746705_a_at) / RFU VCAN (11755009_s_at) / Fold change /veh VCAN (11755009_s_at) / RFU RHOB (11743442_s_at) / Fold change /veh RHOB (11743442_s_at) / RFU RGS16 (11720943_a_at) / Fold change /veh RGS16 (11720943_a_at) / RFU RGS16 (11720944_at) / Fold change /veh RGS16 (11720944_at) / RFU, VPS4B / Fold change vs veh, VPS4B / RFU, CREB1 / Fold change vs veh, CREB1 / RFU, DNAJC13 / Fold change vs veh, DNAJC13 / RFU, GNAQ / Fold change vs veh, GNAQ / RFU, CDK5R1 / Fold change vs veh, CDK5R1 / RFU, ZRANB3 / Fold change vs veh, ZRANB3 / RFU, CUL4A / Fold change vs veh, CUL4A / RFU, CCNY / Fold change vs veh, CCNY / RFU, UFL1 / Fold change vs veh, UFL1 / RFU, COG3 / Fold change vs veh, COG3 / RFU, DIAPH2 / Fold change vs veh, DIAPH2 / RFU, SKA2 / Fold change vs veh, SKA2 / RFU, AFF3 / Fold change vs veh, AFF3 / RFU, LMF1 / Fold change vs veh, LMF1 / RFU, IPO11 / Fold change vs veh, IPO11 / RFU, DFFB / Fold change vs veh, DFFB / RFU, FOXP1 / Fold change vs veh, FOXP1 / RFU, CARD8 / Fold change vs veh, CARD8 / RFU, STRN3 / Fold change vs veh, STRN3 / RFU, ADK / Fold change vs veh, ADK / RFU, RASSF2 / Fold change vs veh, RASSF2 / RFU, WIPF1 / Fold change vs veh, WIPF1 / RFU, LARP1B / Fold change vs veh, LARP1B / RFU, RASA1 / Fold change vs veh, RASA1 / RFU, RB1 / Fold change vs veh, RB1 / RFU, PPFIA1 / Fold change vs veh, PPFIA1 / RFU, MAT2A / Fold change vs veh, MAT2A / RFU, CCT5 / Fold change vs veh, CCT5 / RFU, WDR92 / Fold change vs veh, WDR92 / RFU, CUX1 / Fold change vs veh, CUX1 / RFU, TTC7A / Fold change vs veh, TTC7A / RFU, TMEM135 / Fold change vs veh, TMEM135 / RFU, DEPTOR / Fold change vs veh, DEPTOR / RFU, CPM / Fold change vs veh, CPM / RFU, DNAJB6 / Fold change vs veh, DNAJB6 / RFU, CACNA2D3 / Fold change vs veh, CACNA2D3 / RFU, DTX4 / Fold change vs veh, DTX4 / RFU, TFCP2 / Fold change vs veh, TFCP2 / RFU, GMCL1 /// GMCL1P1 / Fold change vs veh, GMCL1 /// GMCL1P1 / RFU, AEBP2 / Fold change vs veh, AEBP2 / RFU, SNHG1 /// SNORD22 /// SNORD25 /// SNORD26 /// SNORD27 /// SNORD28 /// SNORD29 /// SNORD31 / Fold change vs veh, SNHG1 /// SNORD22 /// SNORD25 /// SNORD26 /// SNORD27 /// SNORD28 /// SNORD29 /// SNORD31 / Fold change (Aza/veh), C12orf56 (ProbeSet 11735607_a_at) / Fold change (ACY-1035/veh), C12orf56 (ProbeSet 11735607_a_at) / Fold change (Aza/veh), FGFR1OP (ProbeSet 11751329_s_at) / Fold change (ACY-1035/veh), FGFR1OP (ProbeSet 11751329_s_at) / Fold change (Aza/veh), VPS36 (ProbeSet 11739960_a_at) / Fold change (ACY-1035/veh), VPS36 (ProbeSet 11739960_a_at) / RFU SYPL1 (11715823_x_at) / Fold change /veh SYPL1 (11715823_x_at) / RFU IGFBP7 (11715501_s_at) / Fold change /veh IGFBP7 (11715501_s_at) / RFU REEP3 (11722064_at) / Fold change /veh REEP3 (11722064_at) / RFU IGLL1 (11728026_x_at) / Fold change /veh IGLL1 (11728026_x_at): dose or concentration left out as unconfirmed. It is filed as cell-based, human.

The structures appear in SMILES notation.

For `Nc1ncn([C@@H]2O[C@H](CO)[C@@H](O)[C@H]2O)c(=O)n1` [azacitidine], the “Fold change vs veh, N4BP2L2” value was found to be 0.90.
